# Organism: Rattus norvegicus
# Assay: DrugMatrix - Regimen: Daily Repeat
# Format: toxicity, organism-based, Sprague-Dawley
# Parameters: regimen Daily Repeat, gender Male, age 6-8 weeks
# Conditions: in vivo, sc, route subcutaneous, […]; for ABSOLUTE BASOPHIL / ABSOLUTE EOSINOPHIL / ABSOLUTE LYMPHOCYTE / ABSOLUTE MONOCYTE / ABSOLUTE SEGMENTED NEUTROPHIL / BASOPHIL / EOSINOPHIL / ERYTHROCYTE COUNT / HEMATOCRIT / HEMOGLOBIN / LEUKOCYTE COUNT / LYMPHOCYTE / MEAN CORPUSCULAR HEMOGLOBIN / MEAN CORPUSCULAR HEMOGLOBIN CONCENTRATION / MEAN CORPUSCULAR VOLUME / MONOCYTE / NEUTROPHIL / NUCLEATED RED BLOOD CELLS / PLATELET COUNT: tissue Blood; for ALANINE AMINOTRANSFERASE / ALBUMIN / ALKALINE PHOSPHATASE / ASPARTATE AMINOTRANSFERASE / BLOOD UREA NITROGEN / CARBON DIOXIDE / CHLORIDE / CHOLESTEROL / CREATINE PHOSPHOKINASE / CREATININE / GLUCOSE / LACTATE DEHYDROGENASE / LIPASE / PHOSPHORUS / POTASSIUM / SODIUM / TOTAL BILIRUBIN / TOTAL PROTEIN / URIC ACID: tissue Plasma
# [1] = 2 mg/kg, 120 h, dose level Low, time 5 day
# [2] = 17 mg/kg, 72 h, dose level High, time 3 day
# [3] = 17 mg/kg, 120 h, dose level High, time 5 day
structure (smiles),measurement,setting,value
CCC(=O)O[C@]1(C(=O)CCl)[C@@H](C)C[C@H]2[C@@H]3CCC4=CC(=O)C=C[C@]4(C)[C@@]3(F)[C@@H](O)C[C@@]21C [CLOBETASOL PROPIONATE],ABSOLUTE BASOPHIL,[1],0 CELLS/uL
same,ABSOLUTE EOSINOPHIL,[1],128.67 CELLS/uL
same,ABSOLUTE LYMPHOCYTE,[1],583 CELLS/uL
same,ABSOLUTE MONOCYTE,[1],17.33 CELLS/uL
same,ABSOLUTE SEGMENTED NEUTROPHIL,[1],7437.67 CELLS/uL
same,BASOPHIL,[1],0%
same,EOSINOPHIL,[1],1.33%
same,ERYTHROCYTE COUNT,[1],6.32 x10E6/uL
same,HEMATOCRIT,[1],40.2%
same,HEMOGLOBIN,[1],14.5 G/DL
same,LEUKOCYTE COUNT,[1],8.17 x10E3/uL
same,LYMPHOCYTE,[1],6.67%
same,MEAN CORPUSCULAR HEMOGLOBIN,[1],23.07 pg
same,MEAN CORPUSCULAR HEMOGLOBIN CONCENTRATION,[1],36.1 G/DL
same,MEAN CORPUSCULAR VOLUME,[1],63.83 fL
same,MONOCYTE,[1],0.33%
same,NEUTROPHIL,[1],91.67%
same,NUCLEATED RED BLOOD CELLS,[1],0 /100WBC
same,PLATELET COUNT,[1],805.67 x10E3/uL
same,ALANINE AMINOTRANSFERASE,[1],191.67 u/L
same,ALBUMIN,[1],4.53 G/DL
same,ALKALINE PHOSPHATASE,[1],392 u/L
same,ASPARTATE AMINOTRANSFERASE,[1],342 u/L
same,BLOOD UREA NITROGEN,[1],24.33 mg/dL
same,CARBON DIOXIDE,[1],19.67 mmol/L
same,CHLORIDE,[1],102.67 MEQ/L
same,CHOLESTEROL,[1],160 mg/dL
same,CREATINE PHOSPHOKINASE,[1],1604 u/L
same,CREATININE,[1],0.28 mg/dL
same,GLUCOSE,[1],604.67 mg/dL
same,LACTATE DEHYDROGENASE,[1],516.33 u/L
same,LIPASE,[1],10.33 u/L
same,PHOSPHORUS,[1],11.93 mg/dL
same,POTASSIUM,[1],4.7 MEQ/L
same,SODIUM,[1],143.1 MEQ/L
same,TOTAL BILIRUBIN,[1],0.7 mg/dL
same,TOTAL PROTEIN,[1],6.67 G/DL
same,URIC ACID,[1],0.9 mg/dL
same,ABSOLUTE BASOPHIL,[2],0 CELLS/uL
same,ABSOLUTE EOSINOPHIL,[2],24 CELLS/uL
same,ABSOLUTE LYMPHOCYTE,[2],383 CELLS/uL
same,ABSOLUTE MONOCYTE,[2],0 CELLS/uL
same,ABSOLUTE SEGMENTED NEUTROPHIL,[2],2026.33 CELLS/uL
same,BASOPHIL,[2],0%
same,EOSINOPHIL,[2],1%
same,ERYTHROCYTE COUNT,[2],5.77 x10E6/uL
same,HEMATOCRIT,[2],36.77%
same,HEMOGLOBIN,[2],13.07 G/DL
same,LEUKOCYTE COUNT,[2],2.43 x10E3/uL
same,LYMPHOCYTE,[2],15.67%
same,MEAN CORPUSCULAR HEMOGLOBIN,[2],22.7 pg
same,MEAN CORPUSCULAR HEMOGLOBIN CONCENTRATION,[2],35.57 G/DL
same,MEAN CORPUSCULAR VOLUME,[2],63.9 fL
same,MONOCYTE,[2],0%
same,NEUTROPHIL,[2],83.33%
same,NUCLEATED RED BLOOD CELLS,[2],0 /100WBC
same,PLATELET COUNT,[2],1160 x10E3/uL
same,ALANINE AMINOTRANSFERASE,[2],95 u/L
same,ALBUMIN,[2],5.23 G/DL
same,ALKALINE PHOSPHATASE,[2],460.67 u/L
same,ASPARTATE AMINOTRANSFERASE,[2],128.33 u/L
same,BLOOD UREA NITROGEN,[2],25.67 mg/dL
same,CARBON DIOXIDE,[2],23.33 mmol/L
same,CHLORIDE,[2],101.5 MEQ/L
same,CHOLESTEROL,[2],162.67 mg/dL
same,CREATINE PHOSPHOKINASE,[2],209.33 u/L
same,CREATININE,[2],0.29 mg/dL
same,GLUCOSE,[2],571.33 mg/dL
same,LACTATE DEHYDROGENASE,[2],160.33 u/L
same,LIPASE,[2],10.5 u/L
same,PHOSPHORUS,[2],10 mg/dL
same,POTASSIUM,[2],4.82 MEQ/L
same,SODIUM,[2],141.8 MEQ/L
same,TOTAL BILIRUBIN,[2],0.2 mg/dL
same,TOTAL PROTEIN,[2],7.47 G/DL
same,URIC ACID,[2],0.4 mg/dL
same,ABSOLUTE BASOPHIL,[3],0 CELLS/uL
same,ABSOLUTE EOSINOPHIL,[3],214.67 CELLS/uL
same,ABSOLUTE LYMPHOCYTE,[3],340.67 CELLS/uL
same,ABSOLUTE MONOCYTE,[3],76.33 CELLS/uL
same,ABSOLUTE SEGMENTED NEUTROPHIL,[3],17401.67 CELLS/uL
same,BASOPHIL,[3],0%
same,EOSINOPHIL,[3],1%
same,ERYTHROCYTE COUNT,[3],6.25 x10E6/uL
same,HEMATOCRIT,[3],38.87%
same,HEMOGLOBIN,[3],14.47 G/DL
same,LEUKOCYTE COUNT,[3],18.03 x10E3/uL
same,LYMPHOCYTE,[3],2%
same,MEAN CORPUSCULAR HEMOGLOBIN,[3],23.17 pg
same,MEAN CORPUSCULAR HEMOGLOBIN CONCENTRATION,[3],37.23 G/DL
same,MEAN CORPUSCULAR VOLUME,[3],62.2 fL
same,MONOCYTE,[3],0.33%
same,NEUTROPHIL,[3],96.67%
same,NUCLEATED RED BLOOD CELLS,[3],0 /100WBC
same,PLATELET COUNT,[3],927.33 x10E3/uL
same,ALANINE AMINOTRANSFERASE,[3],204.67 u/L
same,ALBUMIN,[3],3.67 G/DL
same,ALKALINE PHOSPHATASE,[3],242.33 u/L
same,ASPARTATE AMINOTRANSFERASE,[3],271.33 u/L
same,BLOOD UREA NITROGEN,[3],24.67 mg/dL
same,CARBON DIOXIDE,[3],22 mmol/L
same,CHLORIDE,[3],99.33 MEQ/L
same,CHOLESTEROL,[3],122.33 mg/dL
same,CREATINE PHOSPHOKINASE,[3],1143.67 u/L
same,CREATININE,[3],0.2 mg/dL
same,GLUCOSE,[3],515.33 mg/dL
same,LACTATE DEHYDROGENASE,[3],439.33 u/L
same,LIPASE,[3],9.67 u/L
same,PHOSPHORUS,[3],12.77 mg/dL
same,POTASSIUM,[3],4.7 MEQ/L
same,SODIUM,[3],140.6 MEQ/L
same,TOTAL BILIRUBIN,[3],0.73 mg/dL
same,TOTAL PROTEIN,[3],5.7 G/DL
same,URIC ACID,[3],1.07 mg/dL

# — ChEMBL document CHEMBL3885881, “DrugMatrix”
